From patent US10231967B2, “Compounds and their use as BACE inhibitors” (ASTRAZENECA AB, priority 2010, dated 2019) come the findings set out here.

The structures appear in SMILES notation.

The first test relates to sAPPβ release in SH-SY5Y cells. Kind of test: sAPPβ release assay. The class given is cell-based. The note with it: Homo sapiens, SH-SY5Y, 17 h, compounds incubated 17 h, MSD detection. A digest of the protocol: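 SH-SY5Y cells were exposed to compounds at 1% DMSO final for 17 h at 37 °C. Secreted sAPPβ in 20 μL of medium was quantified by MSD electrochemiluminescence immunoassay with 1 nM detection antibody. Cell plates were then used in an ATP assay for cytotoxicity.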
`CO[C@H]1CC[C@]2(CC1)Cc1ccc(C#CC3CCC3)cc1C21N=C(C)C(N)=N1` (some centres unmarked) [Example 112, (1r,4r)-6′-(Cyclobutylethynyl)-4-methoxy-5″-methyl-3′H-dispiro[cyclohexane-1,2′-indene-1′,2″-imidazol]-4″-amine] gave a half-inhibitory concentration (IC50) of 2 nM. In turn, `CO[C@H]1CC[C@]2(CC1)Cc1ccc(C#CC(C)C)cc1C21N=C(C)C(N)=N1` (some centres unmarked) [Example 113, (1r,4r)-4-Methoxy-5″-methyl-6′-(3-methylbut-1-yn-1-yl)-3′H-dispiro[cyclohexane-1,2′-indene-1′,2″-imidazol]-4″-amine] yielded an IC50 of 1.6 nM. As to `[2H]C([2H])([2H])C#Cc1cncc(-c2ccc3c(c2)[C@@]2(N=C(C)C(N)=N2)[C@]2(CC[C@H](OC)CC2)C3)c1` [Example 114, (1r,1′R,4R)-4-Methoxy-5″-methyl-6′-{5-[(^2H3)prop-1-yn-1-yl]pyridin-3-yl}-3′H-dispiro[cyclohexane-1,2′-indene-1′,2″-imidazol]-4″-amine], 0.14 nM corresponded to half-maximal inhibition (IC50). In turn, `CO[C@H]1CC[C@]2(CC1)Cc1ccc(-c3cnc4[nH]cc(C)c4c3)cc1C21N=C(C)C(N)=N1` (some centres unmarked) [Example 116, (1r,4r)-4-Methoxy-5″-methyl-6′-(3-methyl-1H-pyrrolo[2,3-b]pyridin-5-yl)-3′H-dispiro[cyclohexane-1,2′-indene-1′,2″-imidazol]-4″-amine] displayed an IC50 of 12 nM.

With `[2H]C([2H])([2H])O[C@H]1CC[C@]2(CC1)Cc1ccc(Br)cc1C21N=C(C)C(N)=N1` (some centres unmarked) [Example 117, (1r,4r)-6′-Bromo-5″-methyl-4-[(^2H3)methyloxy]-3′H-dispiro[cyclohexane-1,2′-indene-1′,2″-imidazol]-4″-amine], the IC50 worked out at 47 nM. As to `[2H]C([2H])([2H])O[C@H]1CC[C@]2(CC1)Cc1ccc(-c3cc(F)cc(C#N)c3)cc1C21N=C(C)C(N)=N1` (some centres unmarked) [Example 118, 3-{(1r,4r)-4″-Amino-5″-methyl-4-[(^2H3)methyloxy]-3′H-dispiro[cyclohexane-1,2′-indene-1′,2″-imidazol]-6′-yl}-5-fluorobenzonitrile], half-maximal inhibition (IC50) required 2.8 nM. `[2H]C([2H])([2H])O[C@H]1CC[C@]2(CC1)Cc1ccc(-c3cncc(Cl)c3)cc1C21N=C(C)C(N)=N1` (some centres unmarked) [Example 119, (1r,4r)-6′-(5-Chloropyridin-3-yl)-5′-methyl-4-[(^2H3)methyloxy]-3′H-dispiro[cyclohexane-1,2′-indene-1′,2″-imidazol]-4″-amine] yielded an IC50 of 0.97 nM. Take `CO[C@H]1CC[C@]2(CC1)Cc1ccc(-c3ccc4[nH]cc(C)c4c3)cc1C21N=C(C)C(N)=N1` (some centres unmarked) [Example 121, (1r,4r)-4-Methoxy-5″-methyl-6′-(3-methyl-1H-indol-5-yl)-3′H-dispiro[cyclohexane-1,2′-indene-1′,2″-imidazol]-4″-amine]: the IC50 amounted to 10 nM. With `CC#Cc1cccc(-c2ccc3c(c2)C2(N=C(C)C(N)=N2)[C@]2(CC[C@H](OC)CC2)C3)c1Cl` (some centres unmarked) [Example 123, (1r,4r)-6′-[2-Chloro-3-(prop-1-yn-1-yl)phenyl]-4-methoxy-5″-methyl-3′H-dispiro[cyclohexane-1,2′-indene-1′,2″-imidazol]-4″-amine], half-maximal inhibition (IC50) required 135 nM. Still for that read-out and setting: the value for `[2H]C([2H])([2H])O[C@H]1CC[C@]2(CC1)Cc1ccc(-c3cc(Cl)cc(C#N)c3)cc1C21N=C(C)C(N)=N1` (some centres unmarked) [Example 125, 3-{(1r,4r)-4″-Amino-5″-methyl-4-[(^2H3)methyloxy]-3′H-dispiro[cyclohexane-1,2′-indene-1′,2″-imidazol]-6′-yl}-5-chlorobenzonitrile] was 0.5 nM; that for `CO[C@H]1CC[C@]2(CC1)Cc1ccc(OCC3CCC3)cc1C21N=C(C)C(N)=N1` (some centres unmarked) [Example 126, (1r,4r)-6′-(Cyclobutylmethoxy)-4-methoxy-5″-methyl-3′H-dispiro[cyclohexane-1,2′-indene-1′,2″-imidazol]-4″-amine] was 1.4 nM; that for `CC1=NC2(N=C1N)c1cc(-c3cncc(Cl)c3)ccc1CC21CCC(C(F)F)CC1` (centres unmarked) [Example 129] was 417 nM. Compound `CCO[C@H]1CC[C@]2(CC1)Cc1ccc(Br)cc1C21N=C(C)C(N)=N1` (some centres unmarked) [Example 130, (1r,4r)-6′-Bromo-4-ethoxy-5″-methyl-3′H-dispiro[cyclohexane-1,2′-indene-1′,2″-imidazol]-4″-amine] registered an IC50 of 148 nM. As to `CCO[C@H]1CC[C@]2(CC1)Cc1ccc(-c3cncc(C(F)(F)F)c3)cc1C21N=C(C)C(N)=N1` (some centres unmarked) [Example 131], 24 nM corresponded to half-maximal inhibition (IC50). `CCO[C@H]1CC[C@]2(CC1)Cc1ccc(-c3cc(F)cc(C#N)c3)cc1C21N=C(C)C(N)=N1` (some centres unmarked) [Example 132, 3-[(1r,4r)-4″-amino-4-ethoxy-5″-methyl-3′H-dispiro[cyclohexane-1,2′-indene-1′,2″-imidazol]-6′-yl]-5-fluorobenzonitrile]: the IC50 was determined as 17 nM.

`CC#Cc1cncc(-c2ccc3c(c2)C2(N=C(C)C(N)=N2)[C@]2(CC[C@H](OCC)CC2)C3)c1` (some centres unmarked) [Example 135, (1r,4r)-4-Ethoxy-5″-methyl-6′-[5-(prop-1-yn-1-yl)pyridin-3-yl]-3′H-dispiro[cyclohexane-1,2′-indene-1′,2″-imidazol]-4″-amine] registered an IC50 of 0.85 nM.

The same test, now with this note: Homo sapiens, compounds incubated 17 h, MSD detection.
`CC#Cc1cncc(-c2ccc3c(c2)C2(N=C(C)C(N)=N2)[C@]2(CC[C@](C)(OC)CC2)C3)c1` (some centres unmarked) [Example 111, (1r,4r)-4-Methoxy-4,5″-dimethyl-6′-[5-(prop-1-yn-1-yl)pyridin-3-yl]-3′H-dispiro[cyclohexane-1,2′-indene-1′,2″-imidazol]-4″-amine] registered an IC50 of 31 nM.

Compound `CC1=NC2(N=C1N)c1cc(-c3cc(F)cc(C#N)c3)ccc1CC21CCC(=O)CC1` (centres unmarked) [Example 115, 3-(4″-Amino-5″-methyl-4-oxodispiro[cyclohexane-1,2′-[1H]indene-1′(3′H),2″-[2H]imidazol]-6′-yl)-5-fluorobenzonitrile] came in with an IC50 of 293 nM. For `CO[C@H]1CC[C@]2(CC1)Cc1ccc(-c3cncc(C(F)F)c3)cc1C21N=C(C)C(N)=N1` (some centres unmarked) [Example 120, (1r,4r)-6′-[5-(Difluoromethyl)pyridin-3-yl]-4-methoxy-5″-methyl-3′H-dispiro[cyclohexane-1,2′-indene-1′,2″-imidazol]-4″-amine], the IC50 was determined as 3.1 nM. On to `CC1=NC2(N=C1N)c1cc(Br)ccc1CC21CCC(C(F)(F)F)CC1` (centres unmarked) [Example 124, 6′-Bromo-5″-methyl-4-(trifluoromethyl)-3′H-dispiro[cyclohexane-1,2′-indene-1′,2″-imidazol]-4″-amine], for which the midpoint of inhibition, the IC50, lay at 6950 nM.

As to `COCc1cc(-c2ccc3c(c2)C2(N=C(C)C(N)=N2)[C@]2(CC[C@H](OC)CC2)C3)cc(C#N)c1F` (some centres unmarked) [Example 127, 5-[(1r,4r)-4″-Amino-4-methoxy-5″-methyl-3′H-dispiro[cyclohexane-1,2′-indene-1′,2″-imidazol]-6′-yl]-2-fluoro-3-(methoxymethyl)benzonitrile], half-maximal inhibition (IC50) was put at 5.1 nM. In the case of `CCO[C@H]1CC[C@]2(CC1)Cc1ccc(-c3cncc(Cl)c3)cc1C21N=C(C)C(N)=N1` (some centres unmarked) [Example 133, (1r,4r)-6′-(5-chloropyridin-3-yl)-4-ethoxy-5″-methyl-3′H-dispiro[cyclohexane-1,2′-indene-1′,2″-imidazol]-4″-amine], the IC50 worked out at 5.5 nM. Regarding `CCO[C@H]1CC[C@]2(CC1)Cc1ccc(-c3cc(C#N)cc(C(F)F)c3)cc1C21N=C(C)C(N)=N1` (some centres unmarked) [Example 134, 3-[(1r,4r)-4″-Amino-4-ethoxy-5″-methyl-3′H-dispiro[cyclohexane-1,2′-indene-1′,2″-imidazol]-6′-yl]-5-(difluoromethyl)benzonitrile], the IC50 turned out to be 7.7 nM.

The term IC50 denotes the concentration that gives 50% inhibition. A lower IC50 goes with higher potency.
